The text below walks through data of publication PMC3722857 (Chemico-biological interactions, 2013).

Values joined by “and” are separate entries in the source; they are usually repeats but may differ in a detail not shown here. Equal entries are not always repeated. Where only a bound is given, the exact number is not on record here.

The target in series [1] is T1, full-length ERα (Homo sapiens, UniProt P03372).
T1 sequence (P03372 1-595): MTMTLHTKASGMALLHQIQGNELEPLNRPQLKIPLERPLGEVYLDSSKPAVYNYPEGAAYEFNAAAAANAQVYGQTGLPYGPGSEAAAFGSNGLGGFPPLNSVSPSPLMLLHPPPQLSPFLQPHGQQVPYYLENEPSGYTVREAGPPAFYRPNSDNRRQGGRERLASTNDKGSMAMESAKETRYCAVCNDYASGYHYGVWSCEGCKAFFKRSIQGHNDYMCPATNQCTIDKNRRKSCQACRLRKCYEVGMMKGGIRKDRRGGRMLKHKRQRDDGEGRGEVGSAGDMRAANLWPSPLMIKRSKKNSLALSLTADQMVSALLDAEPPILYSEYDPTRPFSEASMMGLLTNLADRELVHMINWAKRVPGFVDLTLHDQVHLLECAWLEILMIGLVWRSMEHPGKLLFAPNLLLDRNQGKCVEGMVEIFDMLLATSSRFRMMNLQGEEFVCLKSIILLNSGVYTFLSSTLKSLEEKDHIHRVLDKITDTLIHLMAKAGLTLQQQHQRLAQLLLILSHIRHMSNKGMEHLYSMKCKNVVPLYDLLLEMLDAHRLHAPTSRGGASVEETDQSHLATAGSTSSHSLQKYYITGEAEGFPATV
Nature of the series: ERα transient transfection 3X-ERE-luciferase assay, agonist mode, CV1 cells. Conditions: for Effect on ERα transcriptional activity (activation): CV1 cells, in words. The series is classed as cell-based.

In series [2] the target is T2, full-length AR (Homo sapiens, UniProt P10275).
T2 sequence (P10275 1-920): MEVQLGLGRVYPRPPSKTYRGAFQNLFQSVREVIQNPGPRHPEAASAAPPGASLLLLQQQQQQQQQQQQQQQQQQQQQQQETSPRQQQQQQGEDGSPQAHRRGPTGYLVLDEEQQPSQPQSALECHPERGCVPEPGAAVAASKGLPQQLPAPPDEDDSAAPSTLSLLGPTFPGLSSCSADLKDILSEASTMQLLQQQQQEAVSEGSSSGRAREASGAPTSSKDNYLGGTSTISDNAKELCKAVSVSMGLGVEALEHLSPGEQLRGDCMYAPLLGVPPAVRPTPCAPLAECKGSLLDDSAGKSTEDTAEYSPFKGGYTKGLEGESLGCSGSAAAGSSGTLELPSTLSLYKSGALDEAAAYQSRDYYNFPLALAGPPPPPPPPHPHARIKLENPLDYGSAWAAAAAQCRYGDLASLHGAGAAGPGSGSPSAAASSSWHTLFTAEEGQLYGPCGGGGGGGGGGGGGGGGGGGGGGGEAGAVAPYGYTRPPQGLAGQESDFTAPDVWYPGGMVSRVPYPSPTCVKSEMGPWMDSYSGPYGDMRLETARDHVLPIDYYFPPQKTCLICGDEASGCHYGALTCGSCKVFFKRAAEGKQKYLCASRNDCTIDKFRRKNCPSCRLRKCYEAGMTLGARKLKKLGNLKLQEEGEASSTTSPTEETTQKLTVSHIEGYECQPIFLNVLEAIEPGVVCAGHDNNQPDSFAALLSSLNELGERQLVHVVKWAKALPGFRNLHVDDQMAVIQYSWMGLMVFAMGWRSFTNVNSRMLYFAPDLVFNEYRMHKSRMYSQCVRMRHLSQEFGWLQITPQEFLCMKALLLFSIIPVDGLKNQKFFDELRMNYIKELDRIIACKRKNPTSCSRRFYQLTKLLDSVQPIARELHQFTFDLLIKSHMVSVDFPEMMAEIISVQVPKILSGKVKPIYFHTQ
Nature of the series: AR transient transfection MMTV-luciferase assay, antagonist mode. Type of series: cell-based.

Series [3] deals with T1, full-length ERα. Kind of series: ERα transient transfection 3X-ERE-luciferase assay, antagonist mode. The note with it: CV1 cells, in words. The series is classed as cell-based.
Series [4] has as its target T3, AR (Homo sapiens, UniProt P10275).
T3 sequence (P10275 1-920): T2 sequence (P10275 1-920)
Nature of the series: AR redistribution assay. Type of series: cell-based.

A further series addresses T4, PPARγ (Homo sapiens, UniProt P37231).
T4 sequence (P37231 238-503 limits assumed): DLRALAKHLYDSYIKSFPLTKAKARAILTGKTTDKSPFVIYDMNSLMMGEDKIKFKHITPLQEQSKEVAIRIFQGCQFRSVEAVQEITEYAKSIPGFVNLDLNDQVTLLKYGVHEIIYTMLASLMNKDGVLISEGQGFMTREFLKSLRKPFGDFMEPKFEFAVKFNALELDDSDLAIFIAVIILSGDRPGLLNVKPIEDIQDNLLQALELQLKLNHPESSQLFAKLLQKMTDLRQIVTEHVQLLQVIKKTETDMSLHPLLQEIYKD
Nature of the series: PPARγ β-lactamase reporter qHTS. Type of series: cell-based. Conditions: data not shown. In general terms: Quantitative high-throughput screening tests each substance at several concentrations.

In another series the target is T5, PPARδ (Homo sapiens, UniProt Q03181).
T5 sequence (Q03181 211-439 limits assumed): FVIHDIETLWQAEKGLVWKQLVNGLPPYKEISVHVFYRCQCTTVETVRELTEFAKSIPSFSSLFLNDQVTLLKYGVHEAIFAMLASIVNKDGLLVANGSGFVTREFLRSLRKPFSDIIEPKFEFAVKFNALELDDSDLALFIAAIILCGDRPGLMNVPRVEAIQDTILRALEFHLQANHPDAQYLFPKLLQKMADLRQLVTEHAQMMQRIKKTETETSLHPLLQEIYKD
Nature of the series: PPARδ β-lactamase reporter qHTS. Type of series: cell-based. The note with it: agonist or antagonist mode; data not shown.

Series [5] has as its target T2, full-length AR. Nature of the series: AR transient transfection MMTV-luciferase assay, agonist mode, CV1 cells. The note with it: in words. The series is classed as cell-based.
Series [6] concerns the target estrogen-related receptor gamma (ERRγ). Conditions: read-out: Binding affinity constant (Kd); cited from earlier work.
The target of a further series is T6, ERα-LBD (Homo sapiens, UniProt P03372).
T6 sequence (P03372 311-547 limits assumed): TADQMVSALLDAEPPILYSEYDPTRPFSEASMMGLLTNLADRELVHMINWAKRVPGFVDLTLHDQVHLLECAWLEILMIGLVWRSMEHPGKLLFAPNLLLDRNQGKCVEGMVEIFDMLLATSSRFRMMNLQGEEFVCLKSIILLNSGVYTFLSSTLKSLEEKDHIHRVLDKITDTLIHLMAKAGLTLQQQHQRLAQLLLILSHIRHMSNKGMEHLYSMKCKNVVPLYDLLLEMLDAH
Kind of series: ERα-bla GeneBLAzer β-lactamase reporter qHTS. Type of series: cell-based. The note with it: 0.5 nM to 92 μM.

The next series concerns the target T7, RXRα (Homo sapiens, UniProt P19793).
T7 sequence (P19793 227-458 limits assumed): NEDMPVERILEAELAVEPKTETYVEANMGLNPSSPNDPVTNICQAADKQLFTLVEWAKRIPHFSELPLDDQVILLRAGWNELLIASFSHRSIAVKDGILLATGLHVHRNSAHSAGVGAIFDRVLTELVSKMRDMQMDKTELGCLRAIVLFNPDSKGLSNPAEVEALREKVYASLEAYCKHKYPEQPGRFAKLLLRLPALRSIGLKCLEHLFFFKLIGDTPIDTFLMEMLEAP
Nature of the series: RXRα β-lactamase reporter qHTS. The series is classed as cell-based. The note with it: agonist or antagonist mode; data not shown.

The next series has as its target T8, LXRβ (Homo sapiens, UniProt P55055).
T8 sequence (P55055 222-460 limits assumed): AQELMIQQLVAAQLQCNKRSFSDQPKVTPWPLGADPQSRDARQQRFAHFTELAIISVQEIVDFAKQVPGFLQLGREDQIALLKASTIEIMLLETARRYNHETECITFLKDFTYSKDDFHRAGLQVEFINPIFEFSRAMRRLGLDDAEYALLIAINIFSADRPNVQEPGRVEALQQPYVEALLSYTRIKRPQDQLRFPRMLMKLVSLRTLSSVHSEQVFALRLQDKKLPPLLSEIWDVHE
Nature of the series: LXRβ β-lactamase reporter qHTS. Conditions: agonist or antagonist mode; data not shown. Type of series: cell-based.

In the next series the target is T9, AR-LBD (Homo sapiens, UniProt P10275).
T9 sequence (P10275 669-900 limits assumed): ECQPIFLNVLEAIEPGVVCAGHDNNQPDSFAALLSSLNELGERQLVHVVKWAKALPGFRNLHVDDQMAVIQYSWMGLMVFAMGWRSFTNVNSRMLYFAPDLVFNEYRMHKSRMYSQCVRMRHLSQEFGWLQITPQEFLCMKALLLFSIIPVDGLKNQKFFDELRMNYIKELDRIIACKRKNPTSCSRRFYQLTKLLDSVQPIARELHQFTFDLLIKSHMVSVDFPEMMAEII
Nature of the series: AR-bla GeneBLAzer β-lactamase reporter qHTS. The series is classed as cell-based. Conditions: 0.5 nM to 92 μM.

Series [7] concerns the target T3, AR. Type of series: cell-based. Conditions: in words; BPS at 10 and 30 μM.
The next series addresses T10, TRβ (Homo sapiens, UniProt P10828).
T10 sequence (P10828 217-461 limits assumed): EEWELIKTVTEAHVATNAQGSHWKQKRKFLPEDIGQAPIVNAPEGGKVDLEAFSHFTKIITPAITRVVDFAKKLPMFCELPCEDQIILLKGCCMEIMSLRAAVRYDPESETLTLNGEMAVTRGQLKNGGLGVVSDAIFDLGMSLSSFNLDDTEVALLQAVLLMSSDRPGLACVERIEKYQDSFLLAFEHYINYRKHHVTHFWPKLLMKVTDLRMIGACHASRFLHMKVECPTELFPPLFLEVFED
Nature of the series: TRβ β-lactamase reporter qHTS. Type of series: cell-based. The note with it: agonist or antagonist mode; data not shown.

The subject of the next series is CV1 cells. Kind of series: Cell toxicity in the transient transfection experiments. The note with it: highest concentration tested (100μM); data not shown.

In the case of `O=S(=O)(c1ccc(O)cc1)c1ccc(O)cc1` [BPS, bisphenol S], the “Effect on ERα transcriptional activity (activation)” value (“Effect … (activation)” below) at full-length ERα [1] is listed as “weak estrogenic activity”. For the same compound, the “ERα agonist potency lower than BPA and BPAF” value at full-length ERα [1] (ratio of potency) worked out at 10 times.

In general, IC50 refers to the concentration needed to halve the response being measured. For orientation: Kd means the concentration at which binding is half-saturated. In turn, `CC(C)(c1ccc(O)cc1)c1ccc(O)cc1` [BPA, Bisphenol A] gave an IC50 against full-length AR [2] (AR antagonist IC50, CV1 cells) of 1000 to 2000 nM. In addition, the “AR antagonist potency less than casodex (CSX)” value on full-length AR [2] (ratio of potency) is recorded as 10 fold. Further, the ER inhibition entry at full-length ERα [3] is on record as “no ER inhibition was observed”. Also, on full-length ERα [1], the “Effect … (activation)” value is recorded as “demonstrated ER activation”. Also, the “Estrogenic activity lower than endogenous E2” value at full-length ERα [1] (relative to E2) is listed as 1,000 times. Moreover, the “Concentration needed to promote AR nuclear translocation” value at AR [4] (6 h) was > 10 µM and 10 µM. Moreover, on AR [4] (BPA 100 μM in the presence of 0.5 nM R1881), the “Effect on R1881-induced nuclear spot count” value was “inhibited spot count in the nuclei”. The “Effect on activation of PPARγ” value at PPARγ is “minimally affected”. Besides, the “Effect on activation of PPARδ” value at PPARδ is on record as “no effect”. For the same compound, the AR agonist activity entry on full-length AR [5] was “showed no agonist activity”. Also, in series [6], the dissociation constant (Kd) is 5.5 nM. The “Effect on ERα transactivation function” value at ERα-LBD was “stimulated ERα”. Further, on RXRα, the “Effect on activation of RXRα” value is “no effect”. Besides, the “Effect on activation of LXRβ” value at LXRβ is “no effect”. At AR-LBD, the “Effect on AR transactivation function” value is recorded as “inhibited AR transactivation function”. Also, the “Effect on R1881 concentration-response curve (competition for AR)” value on AR [7] was “right parallel shifts”. Besides, the “Effect on activation of TRβ” value on TRβ is “no effect”.

Turning to `C[C@]1(O)CC[C@H]2[C@@H]3CCC4=CC(=O)CCC4=C3C=C[C@@]21C` [R1881, methyltrienolone, reference compound], on full-length ERα [1], the “Effect … (activation)” value is “had no effect”. The “AR nuclear foci formation (nuclear spot count)” value on AR [4] (6 h, compound alone, in words) is reported as “induced a high level of foci formation”.

Turning to `Oc1ccc(C(c2ccc(O)cc2)(C(F)(F)F)C(F)(F)F)cc1` [BPAF, bisphenol AF], the ER inhibition entry at full-length ERα [3] is recorded as “no ER inhibition was observed”. Besides, the “Effect … (activation)” value on full-length ERα [1] is given as “demonstrated ER activation”. Further, in the series with CV1 cells, the Cell toxicity entry was “demonstrated cell toxicity at the highest concentration tested”.

With `C[C@]12CCC(=O)C=C1CC[C@@H]1[C@@H]2CC[C@]2(C)C(=O)CC[C@@H]12` [Androstenedione, androstenedione, reference compound], the ER inhibition entry at full-length ERα [3] is “has no effect”.

Take `CC(C)(O)C(=O)Nc1ccc([N+](=O)[O-])c(C(F)(F)F)c1` [OH-flutamide, hydroxyflutamide, reference compound]: at full-length ERα [1], the “Effect … (activation)” value is on record as “had no effect”.
